Source: patent US11661404B2, “Prodrug compounds activated by AKR1C3 and their use for treating hyperproliferative disorders” (priority 2018, dated 2023)
Entries after “also recorded” stand apart in the source; their conditions may differ.

What was measured:
[1] = Solubility by HPLC in water and lactate buffer; assay type: physicochemical; settings: water, room temperature; read-out: Solubility, Water, RT
Procedure: (§1) The solubility and stability of compound 641 was studied by HPLC in lactate buffer (pH 4) and water as the free base and the mesylate salt (641.Ms) at 0° C. and room temperature (RT). […] However, this was improved considerably by formulation as the mesylate salt, producing a solubility of greater than 100 mmol/L in lactate buffer and greater than 70 mmol/L in water. […] This stability was improved considerably by reducing the temperature of the solution to 0° C.

[2] = tested on: SNU-398^AKR1C3 (AKR1C3 over-expressing) hepatocellular carcinoma xenografts; experiment: Tumour growth delay, SNU-398 AKR1C3 over-expressing xenografts; assay type: in vivo, NIH-III mice; settings: q4dx4 intraperitoneal, 50 mg/kg
Excerpt: (§2) Specific pathogen-free female homozygous nude NIH-III (NIH-Lyst^bg Foxn1^nu Btk^xid) mice were bred by the Vernon Jansen Unit (shared vivarium, University of Auckland). Animals were housed in Techniplast microisolator cages and provided with a standard twelve hour day-night light schedule. Animals received standard rodent diet (Harlan Teklad diet 2018i) and water ad libitum. All animal studies were approved by the University of Auckland Animal Ethics Committee.
(§3) Animals weighed 18-25 g at the time of tumour inoculation. Tumours were grown subcutaneously on the right flank of mice by inoculating cells grown in tissue culture (1×10^7 cells in 100 uL serum free α-MEM). Tumour sizes were monitored three times weekly using electronic callipers and treatments were initiated once tumour diameter reached ≥7 mm.
(§4) Tumour bearing mice were randomised into the appropriate treatment groups and tumour size and body weight recorded. Test compounds were formulated on the day of the experiment and kept in foil-wrapped tubes out of direct fluorescent light. […] Mice were treated with a single (or q4dx3 or q4dx4 or q4dx6) dose of a compound of the invention by intraperitoneal injection and thereafter tumour size and body weight was monitored every second day. Tumour volume was calculated as […] (l×w×w)/6, where l is the major axis and w is the perpendicular minor axis. […]

[3] = Stability in solution by HPLC in water and lactate buffer; assay type: physicochemical
Procedure: as §1

[4] = tested on: SW780 bladder carcinoma xenografts; experiment: Tumour growth delay, SW780 xenografts; assay type: in vivo, NIH-III mice; settings: q4dx6 intraperitoneal, 50 mg/kg
Excerpt: as §2, §3, §4

[5] = tested on: SNU-398^WT (wild type) hepatocellular carcinoma xenografts; experiment: Tumour growth delay, SNU-398 wild type xenografts; assay type: in vivo, NIH-III mice; settings: q4dx4 intraperitoneal, 50 mg/kg; negligible AKR1C3 expression; FIG. 7
Excerpt: as §2, §3, §4

[6] = tested on: H460 lung cancer xenografts; experiment: Tumour growth delay, H460 xenografts; assay type: in vivo, NIH-III mice
Excerpt: as §2, §3
Tumour bearing mice were randomised into the appropriate treatment groups and tumour size and body weight recorded. Test compounds were formulated on the day of the experiment and kept in foil-wrapped tubes out of direct fluorescent light. If recruitment of animals occurred over multiple days, the drug stocks were aliquoted into tubes and frozen once at −80° C. until required. Mice were treated with a single (or q4dx3 or q4dx4 or q4dx6) dose of a compound of the invention by intraperitoneal injection and thereafter tumour size and body weight was monitored every second day. Tumour volume was calculated as […] (l×w×w)/6, where l is the major axis and w is the perpendicular minor axis. Animals were culled when they had reached the appropriate survival endpoint or when body weight loss exceeded 20% of the pre-treatment value.

[7] = tested on: PLC/PRF/5 hepatocellular carcinoma xenografts; experiment: Tumour growth delay, PLC/PRF/5 xenografts; assay type: in vivo, NIH-III mice; settings: q4dx4 intraperitoneal, 114 mg/kg
Excerpt: as §2, §3, §4

Compound: CN1CCN(S(=O)(=O)c2cc([N+](=O)[O-])ccc2N(CCOS(C)(=O)=O)CCOS(C)(=O)=O)CC1 [Compound 641.Ms, 4-((2-(bis(2-((methylsulfonyl)oxy)ethyl)amino)-5-nitrophenyl)sulfonyl)-1-methylpiperazin-1-ium methanesulfonate]
- solubility [1]: > 70 mM
- anti-tumour activity (mean tumour volume) ([2]; FIG. 7): significant anti-tumour activity
- tolerability of schedule ([2]; mice bearing SNU-398^WT or SNU-398^AKR1C3 xenografts): well-tolerated
- Stability (% Parent after 24 hours), Lactate Buffer, 0° C. ([3]; lactate buffer (pH 4), 0° C.): 91.7%
- Stability (% Parent after 24 hours), Lactate Buffer, RT ([3]; lactate buffer (pH 4), room temperature, methanesulfonate): 51.9%
- Stability (% Parent after 24 hours), Water, RT ([3]; water, room temperature): 53.8%
- tolerability of schedule [4]: well-tolerated
- anti-tumour activity (mean tumour volume) ([4]; FIG. 6): significant anti-tumour activity
- anti-tumour activity (mean tumour volume) [5]: inactive
- anti-tumour efficacy (mean tumour volume) ([6]; q4dx4 intraperitoneal, 10, 25, 50, 100 and 150 mg/kg, FIG. 4): significant anti-tumour efficacy
- mean percentage change in body weight ([6]; q4dx4 intraperitoneal, 10-150 mg/kg, all dose cohorts): ≥ −10%
- tolerability ([6]; q4dx4 intraperitoneal, 10-150 mg/kg, methanesulfonate): well-tolerated; also recorded: well tolerated
- anti-tumour efficacy (mean tumour volume) ([6]; single dose intraperitoneal, 237, 422, 562, 750 and 1000 μmol/kg, FIG. 3): significant anti-tumour efficacy
- tolerability ([6]; single dose intraperitoneal, 237-1000 μmol/kg): well-tolerated
- tolerability of schedule [7]: well-tolerated
- anti-tumour activity (mean tumour volume) ([7]; FIG. 5): significant anti-tumour activity
